Measured values from PubChem BioAssay AID248 (DTP/NCI, 2004).
Where “and” joins values, the source holds several entries; their conditions need not be identical. Equal values may be shown once. Toxic doses and inconclusive results are not listed. Cut-off read from the data, not from the text of the source: active = T/C of 150% or more; inactive = T/C below 125%.

Test system: L1210 leukemia ip in BDF1 mice, survival T/C
Test: NCI In Vivo Anticancer Drug Screen. Data for tumor model L1210 Leukemia (intraperitoneal) in B6D2F1 (BDF1) mice
Conditions: endpoint: mean survival time, higher = longer survival
In short: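 Tumor cells were implanted, animals were treated, and survival was followed. The result divides the treated measurement by the vehicle-control measurement.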

[1] = dose: 100.0 mg/kg/injection, schedule: Q01DX009 (ip), vehicle: saline with Tween-80
[2] = dose: 400.0 mg/kg/injection, schedule: Q01DX009 (ip), vehicle: saline with Tween-80
[3] = dose: 200.0 mg/kg/injection, schedule: Q01DX009 (ip), vehicle: saline with Tween-80
[4] = dose: 100.0 mg/kg/injection, schedule: Q01DX001 (ip), vehicle: carboxymethylcellulose (CMC)
[5] = dose: 100.0 mg/kg/injection, schedule: Q04DX003 (ip), vehicle: Klucel (hydroxypropylcellulose) (HPC)
[6] = dose: 200.0 mg/kg/injection, schedule: Q01DX001 (ip), vehicle: carboxymethylcellulose (CMC)
[7] = dose: 200.0 mg/kg/injection, schedule: Q04DX003 (ip), vehicle: Klucel (hydroxypropylcellulose) (HPC)
[8] = dose: 400.0 mg/kg/injection, schedule: Q01DX001 (ip), vehicle: carboxymethylcellulose (CMC)
[9] = dose: 400.0 mg/kg/injection, schedule: Q04DX003 (ip), vehicle: Klucel (hydroxypropylcellulose) (HPC)
[10] = dose: 100.0 mg/kg/injection, schedule: Q01DX009 (ip), vehicle: saline
[11] = dose: 200.0 mg/kg/injection, schedule: Q01DX009 (ip), vehicle: saline
[12] = dose: 400.0 mg/kg/injection, schedule: Q01DX009 (ip), vehicle: saline
[13] = dose: 50.0 mg/kg/injection, schedule: Q01DX009 (ip), vehicle: Klucel (hydroxypropylcellulose) (HPC)
[14] = dose: 100.0 mg/kg/injection, schedule: Q01DX009 (ip), vehicle: Klucel (hydroxypropylcellulose) (HPC)
[15] = dose: 200.0 mg/kg/injection, schedule: Q01DX009 (ip), vehicle: Klucel (hydroxypropylcellulose) (HPC)

Measured: T/C

N#CCCn1cnc2c(=S)nc[nH]c21
inactive: dose: 2.0 mg/kg/injection, schedule: Q01DX Z (ip), vehicle: other 97 % of control | dose: 4.0 mg/kg/injection, schedule: Q01DX Z (ip), vehicle: other 97 % of control and 100 % of control | dose: 8.0 mg/kg/injection, schedule: Q01DX Z (ip), vehicle: other 100 % of control and 106 % of control | dose: 16.0 mg/kg/injection, schedule: Q01DX Z (ip), vehicle: other 101 % of control and 102 % of control | dose: 32.0 mg/kg/injection, schedule: Q01DX Z (ip), vehicle: other 96 % of control and 98 % of control

CC(C)(C)[CH2][Sn]([Cl])([CH2]C(C)(C)C)[CH2]C(C)(C)C
inactive: dose: 12.5 mg/kg/injection, schedule: Q04DX002 (ip), vehicle: saline with Tween-80 92 % of control

C/C(Cc1ccccc1)=N\O
inactive: dose: 59.0 mg/kg/injection, schedule: Q01DX009 (ip), vehicle: saline with Tween-80 107 % of control | [1] 104 % of control | dose: 118.0 mg/kg/injection, schedule: Q01DX009 (ip), vehicle: saline with Tween-80 109 % of control | dose: 236.0 mg/kg/injection, schedule: Q01DX009 (ip), vehicle: saline with Tween-80 103 % of control | [2] 97 % of control

CC(=O)C(C)(C)Cl
inactive: [1] 94 % of control | [3] 95 % of control | [2] 101 % of control

Cc1ccccc1N=Nc1ccc(N(C)C)cc1
inactive: dose: 50.0 mg/kg/injection, schedule: Q01DX001 (ip), vehicle: carboxymethylcellulose (CMC) 93 % of control | [4] 107 % of control | [5] 95 % of control | [6] 86 % of control | [7] 95 % of control | [8] 98 % of control | [9] 91 % of control

O=C1C(N2CCCCC2)=C(c2ccccc2)c2ccccc21
inactive: dose: 100.0 mg/kg/injection, schedule: Q01DX001 (ip), vehicle: saline 92 % of control | dose: 200.0 mg/kg/injection, schedule: Q01DX001 (ip), vehicle: saline 94 % of control | dose: 400.0 mg/kg/injection, schedule: Q01DX001 (ip), vehicle: saline 102 % of control

CCCCCCOC(=O)C(C)(O)C(Cl)c1ccccc1 (stereo not given)
inactive: dose: 100.0 mg/kg/injection, schedule: Q04DX002 (ip), vehicle: saline 100 % of control | dose: 200.0 mg/kg/injection, schedule: Q04DX002 (ip), vehicle: saline 111 % of control | dose: 400.0 mg/kg/injection, schedule: Q04DX002 (ip), vehicle: saline 91 % of control

Cc1ncc(CO)c(C2NOCc3c(Cl)cc4c(c32)OCO4)c1O (stereo not given)
inactive: [1] 90 % of control | [3] 95 % of control | [2] 94 % of control

CCN(CCO)C(=O)C1C(c2ccccc2)C1c1ccccc1 (stereo not given)
inactive: dose: 100.0 mg/kg/injection, schedule: Q04DX002 (ip), vehicle: Klucel (hydroxypropylcellulose) (HPC) 97 % of control | dose: 200.0 mg/kg/injection, schedule: Q04DX002 (ip), vehicle: Klucel (hydroxypropylcellulose) (HPC) 100 % of control | dose: 400.0 mg/kg/injection, schedule: Q04DX002 (ip), vehicle: Klucel (hydroxypropylcellulose) (HPC) 90 % of control

CC(=O)Nc1cc2c(cc1[N+](=O)[O-])-c1ccc(F)cc1C2
inactive: dose: 50.0 mg/kg/injection, schedule: Q04DX003 (ip), vehicle: Klucel (hydroxypropylcellulose) (HPC) 104 % of control | [4] 94 % of control | [5] 96 % of control | [6] 96 % of control | [7] 100 % of control | [8] 91 % of control

CCOC(=O)c1[nH]c(C)c(C(C)=O)c1C
inactive: [1] 92 % of control | [3] 97 % of control | [2] 100 % of control

CCOC(=O)C(CCc1ccccn1)C(C)=O (stereo not given)
inactive: [10] 97 % of control | [11] 107 % of control | [12] 102 % of control

NC(=O)CCCCc1ccccc1
inactive: dose: 50.0 mg/kg/injection, schedule: Q01DX001 (ip), vehicle: saline with Tween-80 93 % of control | dose: 100.0 mg/kg/injection, schedule: Q01DX001 (ip), vehicle: saline with Tween-80 98 % of control | dose: 200.0 mg/kg/injection, schedule: Q01DX001 (ip), vehicle: saline with Tween-80 90 % of control

Nc1cccc(OCCCOc2cccc([N+](=O)[O-])c2)c1
inactive: [13] 106 % of control | [14] 90 % of control | [15] 90 % of control

COc1ccccc1CNCc1ccccc1
inactive: dose: 75.0 mg/kg/injection, schedule: Q01DX001 (ip), vehicle: other 101 % of control

CCOC(=O)c1ccc(NC(=S)NC(=O)c2cccc3ccccc23)cc1
inactive: dose: 100.0 mg/kg/injection, schedule: Q04DX002 (ip), vehicle: other 91 % of control and 92 % of control | dose: 200.0 mg/kg/injection, schedule: Q04DX002 (ip), vehicle: other 97 % of control and 91 % of control | dose: 400.0 mg/kg/injection, schedule: Q04DX002 (ip), vehicle: other 102 % of control and 91 % of control

COC(=O)c1cc(=O)c2cccc(C(=O)O)c2[nH]1
inactive: [13] 109 % of control | [14] 98 % of control | [15] 102 % of control

O=C(Nc1cccc(F)c1)Nc1nccs1
inactive: dose: 25.0 mg/kg/injection, schedule: Q01DX009 (ip), vehicle: Klucel (hydroxypropylcellulose) (HPC) 89 % of control | [13] 99 % of control | [14] 95 % of control and 97 % of control

c1ccc(CC(Cc2ccccc2)=[N+]2C3CCCC2CC3)cc1
inactive: dose: 100.0 mg/kg/injection, schedule: Q04DX003 (ip), vehicle: saline 92 % of control | dose: 200.0 mg/kg/injection, schedule: Q04DX003 (ip), vehicle: saline 101 % of control | dose: 400.0 mg/kg/injection, schedule: Q04DX003 (ip), vehicle: saline 111 % of control

CCCCNC(=O)/C=C\C(=O)O
inactive: dose: 50.0 mg/kg/injection, schedule: Q01DX009 (ip), vehicle: saline with Tween-80 95 % of control | [14] 87 % of control | [1] 97 % of control | [10] 92 % of control | [5] 100 % of control | [15] 87 % of control | [3] 95 % of control | [11] 94 % of control | dose: 400.0 mg/kg/injection, schedule: Q01DX009 (ip), vehicle: Klucel (hydroxypropylcellulose) (HPC) 100 % of control | [12] 97 % of control | [9] 87 % of control
